Literature values as cited in publication PMC5523132 (ACS chemical biology, 2016).

Details: cited from earlier work

Compound | half-life (adult rats) | clearance half-life (in the rat)
O=C([O-])CN1CCN(CC(=O)[O-])CCN(CC(=O)[O-])CCN(CC(=O)[O-])CC1.[Gd+3] [[Gd•DOTA], reference compound] | roughly 19 minutes | 
RSA: rat serum albumin |  | approx. 48 hours
